Data reported in US9855238B2, “Compositions comprising 15-HEPE and methods of using the same” (Afimmune Limited, priority 2015, dated 2018).
“And” between values parts separate entries of the source, which are not always exact repeats. Identical values can stand only once.

Columns and labels:
Format in all cases: in vivo, human
[1] = Phase I safety evaluation (AEs, clinical laboratory tests, vital signs, ECGs); settings: healthy subjects
Method: (§1) A Phase I, single-centre, randomised, double-blind, placebo-controlled study in male and female healthy volunteers aged 18 to 45 years, inclusive was performed. Fifty-seven (57) subjects were enrolled with 8 subjects per cohort (ideally 4 males and 4 females, but no less than 3 per gender). Cohort 5 enrolled a total of 9 subjects to account for discontinued subjects. The effective date of study commencement was defined as inclusion of the first subject (inclusion starts with the informed consent signature). Subjects who were enrolled in Part 1 of the study (single dose cohorts) could have been brought back and re-enrolled in Part 2 (multiple dose) provided they had no AEs related to the study drug and that there was at least a 14-day washout period before starting the multiple dose. There were 18 subjects who participated in both study parts. The subjects underwent screening within 21 days prior to study Day 1.
All clinical safety data were presented in by-subject data listings. Safety was evaluated by clinical laboratory tests, physical examination, vital signs, electrocardiograms (ECGs), and adverse events (AEs).
Continuous variables were summarized using number of observations (N), mean, SD, median, minimum, and maximum. Frequency counts were reported for categorical data. AEs were classified according to the Medical Dictionary for Regulatory Activities (MedDRA®), Version 18.0. Concomitant medications were classified according to the World Health Organization (WHO) Drug Dictionary 1 Mar. 2015. Vital sign, ECG, and laboratory summary and change from baseline results were presented. Shift tables were also presented for laboratory and ECG parameters.

[2] = Phase I Part 1 single ascending dose (SAD) pharmacokinetics of plasma 15(S)-HEPE, fasted; settings: for AUC0-last / Cmax / Tlast / Tmax: plasma 15(S)-HEPE, Day 1; for AUC0-last / Cmax: geom. mean (geom. CV %); for Tlast / Tmax: median (minimum, maximum)
Method: as §1
Part 1 comprised 4 dose cohorts (100 mg, 500 mg, 1000 mg, and 2000 mg). Six (6) subjects were randomized to receive DS102 and 2 subjects received matching placebo. A single oral dose of DS102 or matching placebo was administered.
(§2) In Part 1, DS102 capsules (Lot No. 2540M-1504) or matching placebo (Lot No. KM73) were administered in a single oral dose according to Table 1.
(§3) For study Part 1, Cohorts 1, 2, 3, and 4 blood samples were taken predose on Day 1 up to 312 hours postdose. For study Part 2, Cohorts 5, 6, and 7 blood samples were taken on Days 1, 14, and 28 at predose and up to 168 hours postdose. The appropriate PK parameters, e.g., Cmax, Tmax, AUC0-24, AUC0-last, AUC0-inf, AUC % ext, Kel, t½, RCmax, and RAUC were presented, where appropriate. Plasma 15(S)-HEPE data contained many values below the limit of quantitation (BLQ) and only sparse measurable concentrations leading to incomplete PK profiles. Given the nature of the data observed, conventional dose proportionality and steady-state analyses could not be performed. No inferential statistical analyses were performed for PK parameters.
(§4) Summary statistics, including sample size (N), arithmetic mean (mean), standard deviation (SD), coefficient of variation (CV %), median, minimum, and maximum were calculated for all nominal concentration time points. Plasma 15(S)-HEPE PK parameters were tabulated by treatment and listed by subject and parameter. Summary statistics (N, mean, SD, CV %, median, minimum, and maximum) were calculated for plasma 15(S)-HEPE PK parameters. In addition, geometric mean (Geom. Mean) and geometric CV % (Geom. CV %) were presented for AUCs and Cmax. Excluded subjects were included in the PK parameter table listings, but were excluded from the summary statistics and noted as such in the tables. Mean and individual concentration-time profiles were presented on linear and semi-log scales. Linear mean plots were presented with and without SD. Individual plots were presented on linear and semi-log scales.

[3] = Phase I Part 2 multiple ascending dose (MAD) pharmacokinetics of plasma 15(S)-HEPE, QD for 28 days, fasted; settings: for AUC0-last / Cmax: geom. mean; for Tlast / Tmax: median; for RAUC / RCmax: mean ± SD
Method: as §1
Part 2 of the study involved a multipledose regimen at 3 dose levels using 3 cohorts consisting of 8 subjects each. Six (6) subjects were randomized to receive DS102 and 2 subjects received matching placebo. Cohorts 5 and 6 (9 and 8 subjects, respectively) received oral DS102 or placebo QD for 28 days.
In Part 2, DS102 capsules (Lot No. 2540M-1504) or matching placebo (Lot No. KM73) were administered QD for 28 days according to Table 2.
as §3, §4

[4] = Phase I Part 1 food effect pharmacokinetics of plasma 15(S)-HEPE (standard ATPIII/TLC diet, high-fat diet); settings: for Tlast / Tmax: median
Method: as §1
Cohort 2 also received 500 mg of DS102 in 2 fed states. While the first 500 mg dose was given in fasted state, the second and third 500 mg doses were given in fed state (standard ATPIII/TLC diet and high-fat diet, respectively). The second dose was received at least 14 days after their first dose and the third dose was received at least 14 days after their second dose.
as §2, §3, §4

[5] = single oral 500 mg fasted, N = 2
[6] = single oral 1000 mg fasted, N = 3
[7] = single oral 2000 mg fasted, N = 3
[8] = 500 mg QD fasted, Days 14 and 28
[9] = plasma 15(S)-HEPE, 500 mg QD fasted, Day 1, N = 6
[10] = plasma 15(S)-HEPE, 500 mg QD fasted, Day 1, reported only for Subject 38
[11] = plasma 15(S)-HEPE, 500 mg QD fasted, Day 14, N = 3
[12] = plasma 15(S)-HEPE, 500 mg QD fasted, Day 28, N = 2
[13] = plasma 15(S)-HEPE, single oral 500 mg fed high fat diet, N = 6, geom. mean
[14] = plasma 15(S)-HEPE, single oral 500 mg fed high fat diet, N = 6
[15] = plasma 15(S)-HEPE, single oral 500 mg fed standard diet, N = 6, geom. mean
[16] = plasma 15(S)-HEPE, single oral 500 mg fed standard diet, N = 6
[17] = single oral 500 mg with a standard or high-fat diet

## 15-Hydroxy-Eicosapentaenoic Acid Ethyl Ester [DS102]
[1]; following DS102 treatment
  adverse events considered related to the study treatment: dysguesia and eructation
[1]; single and multiple ascending doses
  deaths, serious adverse events, discontinuations due to AEs: no deaths, serious adverse events (SAEs), or subject discontinuations due to AEs
[1]; single ascending doses of 100 mg, 500 mg, 1000 mg and 2000 mg and multiple ascending doses of 500 mg, 500 and 1000 mg
  safety and tolerability: safe and well tolerated
[2]; [5]
  AUC0-last: 1270 (70.9) ng * hr/mL and 1270 ng * hr/mL
  Cmax: 343.7 (52.1) ng/mL and 343.7 ng/mL
  Tlast: 8.001 (8.00, 8.00) hr and 8.001 hr
  Tmax: 6.005 (6.00, 6.01) hr and 6.005 hr
[2]; [6]
  AUC0-last: 1063 (102.6) ng * hr/mL
  Cmax: 366.2 (102.5) ng/mL
  Tlast: 7.999 (8.00, 8.00) hr
  Tmax: 5.996 (5.99, 6.00) hr
[2]; [7]
  AUC0-last: 733.3 (56.5) ng * hr/mL
  Cmax: 294.3 (70.1) ng/mL
  Tlast: 8.001 (8.00, 8.01) hr
  Tmax: 8.001 (6.01, 8.01) hr
[2]; single oral 100 mg fasted, entire sampling interval, all subjects
  Plasma concentrations of 15(S)-HEPE: BLQ
[2]; single oral 500 mg fasted
  median Tmax: 6.00 h
[2]; single oral 1000 mg fasted
  median Tmax: 6.00 h
[2]; single oral 2000 mg fasted
  median Tmax: 8.00 h
[3]; 500 mg QD fasted, Day 1
  time of peak mean 15(S)-HEPE concentrations: 4 h
[3]; 500 mg QD fasted, Day 14
  time plasma concentrations remained measurable in at least one subject: 24 hours postdose
[3]; 500 mg QD fasted, Days 1 and 28
  time plasma concentrations remained measurable in at least one subject: 12 hours postdose
[3]; [8]
  predose values (troughs): not quantifiable
  time of peak mean 15(S)-HEPE concentrations: 6 h
[3]; 1000 mg QD fasted
  mean plasma 15(S)-HEPE concentrations by study day: higher on Day 14 than on Days 1 and 28
[3]; 1000 mg QD fasted, Day 14
  time plasma concentrations remained quantifiable in at least one subject: 12 hours postdose
[3]; 1000 mg QD fasted, Days 1 and 28
  time plasma concentrations remained quantifiable in at least one subject: 8 hours postdose
[3]; 1000 mg QD fasted, Days 14 and 28
  predose values (troughs): no quantifiable predose values
[3]; [9]
  AUC0-last: 1681 ng·h/mL
  Cmax: 459.1 ng/mL
  Tlast: 8.079 h
  Tmax: 5.005 h
[3]; [10]
  AUC0-24: 6249 ng·h/mL
  AUC0-inf: 6277 ng·h/mL
  Kel: 0.245 h⁻¹
  t½: 2.824 h
[3]; [11]
  AUC0-last: 2370 ng·h/mL
  Cmax: 644.1 ng/mL
  RAUC: 6.807 ± 10.322
  RCmax: 4.177 ± 5.4055
  Tlast: 8.034 h
  Tmax: 5.995 h
[3]; [12]
  AUC0-last: 2787 ng·h/mL
  Cmax: 737.4 ng/mL
  RAUC: 8.205 ± 10.210
  RCmax: 5.923 ± 6.8329
  Tlast: 10.002 h
  Tmax: 6.004 h
[4]; 500 mg with high-fat diet compared to standard diet
  delay of apparition of 15(S)-HEPE in plasma: 2 h
[4]; fed state (standard or high-fat diet)
  effect of fed state on 15(S)-HEPE absorption: considerably increase 15(S)-HEPE absorption
[4]; [13]
  AUC0-last: 9693 ng·h/mL
  Cmax: 2402 ng/mL
[4]; [14]
  Tlast: 11.993 h
  Tmax: 6.021 h
[4]; [15]
  AUC0-24: 10940 ng·h/mL
  AUC0-last: 8450 ng·h/mL
  Cmax: 2420 ng/mL
[4]; [16]
  Tlast: 8.017 h
  Tmax: 4.014 h
[4]; plasma 15(S)-HEPE, single oral 500 mg fed standard diet, calculable for 4 subjects, geom. mean
  AUC0-inf: 11050 ng·h/mL
[4]; plasma 15(S)-HEPE, single oral 500 mg fed standard diet, calculable for 4 subjects, mean ± SD
  t½: 1.998 ± 1.5155 h
[4]; plasma 15(S)-HEPE, single oral 500 mg fed standard diet, mean ± SD
  Kel: 0.471 ± 0.228 h⁻¹
[4]; single oral 500 mg after a high-fat diet
  median Tmax: 6.00 h
[4]; single oral 500 mg after a standard diet
  median Tmax: 4.00 h
[4]; [17]
  time at which peak mean plasma concentrations were reached: approximately 4 hours
  time plasma concentrations remained quantifiable in at least one subject: 12 hours postdose
[4]; single oral 500 mg, standard diet
  mean 15(S)-HEPE t½: 2.00 h and 2.0 h
[4]; single oral 500 mg, standard or high-fat diet relative to fasted
  effect of diet on mean maximum and overall exposure of 15(S)-HEPE (Cmax and AUC0-last): increased mean maximum and overall exposure
[4]; single oral 500 mg, standard or high-fat diet vs fasted
  mean plasma concentrations of 15(S)-HEPE, fed versus fasted: higher under fed conditions
